Test results taken from patent US8242170B2, “Use of cis-epoxyeicosatrienoic acids and inhibitors of soluble epoxide hydrolase to reduce cardiomyopathy” (The Regents of the University of California, priority 2005, dated 2012).
“Also recorded” adds a separate entry of the source.

Key:
[1] = tested on: TAC-mice (thoracic aortic constriction, cardiac hypertrophy); assay: Thoracic aortic constriction (TAC) mouse model of pressure overload cardiac hypertrophy; type: in vivo, mouse (C57B1/6J); conditions: for Hypertrophic response, H&E-stained histologic sections (FIG. 2): 3 weeks, compound 950 15 mg/kg twice a day, AUDA-BE 3 mg/kg twice a day, in drinking water; for Cardiac hypertrophy after drug treatment: sEH inhibitor in drinking water for three weeks
Protocol: Ascending aortic constriction was performed in 8-week-old male C57B1/6J mice (Charles River, Wilmington, Mass.). Animals were anesthetized with intraperitoneal ketamine 50 mg/kg and xylazine 2.5 mg/kg, and aortic constriction was created via a left thoracotomy by placing a ligature securely around the ascending aorta and a 26-gauge needle and then removing the needle. Immediately after the surgery, animals with ascending aortic stenosis were randomized and placed in one of the following regimens for three weeks: (a) compound 950 in drinking water ([…]), (b) AUDA-BE in drinking water, or (c) no drug. Age-matched animals served as controls.
To assess systolic function, echocardiograms were performed using M-mode and two-dimensional measurements as described previously. The measurements represented the average of six selected cardiac cycles from at least two separate scans performed in random-blind fashion with papillary muscles used as a point of reference for consistency in level of scan. End diastole was defined as the maximal left ventricle diastolic dimension and end systole was defined as the peak of posterior wall motion. Fractional shortening (FS), a surrogate of systolic function, was calculated from left ventricle dimensions as follows: FS=((EDD−ESD)/EDD)×100%.
To compare myocyte size, hearts were removed and rinsed for 1 minute in 0.1 mol/L phosphate buffered saline (PBS) with 50 mmol/L KCl (pH 7.2) and subsequently fixed overnight at 4° C. in 4% paraformaldehyde prepared in PBS. Vibratome sections (100 μm) from similar areas of the left ventricles were stained in a 1:20 dilution of rhodamine phalloidin (Molecular Probes, Inc., Eugene, Oreg.) and imaged with a BioRad MRC1000 confocal scanning laser microscope (BioRad Laboratories, Hercules, Calif.). A minimum of 5 optical sections was collected from the free wall of the left ventricle of each animal with a Zeiss 60× NA 1.4 lens. All images used for myocyte measurements were collected with identical laser, iris, gain, and black level operating parameters. Myocyte widths were measured parallel to the direction of the sarcomeres from unbranched regions of the myocytes near an intercalated disk with the length/profile function. Data sets were then compared using Student t tests.
Thoracic aortic constrictions (“TACs”) were created in 8-week-old male C57B1/6J mice as described in Example 1, above, resulting in a chronic pressure overload induced cardiac hypertrophy. TAC-mice were randomized to receive either no therapy or one of two exemplar sEH inhibitors (compound 950 and AUDA-BE) in drinking water for a period of three weeks. […] This effect is independent of the anti-hypertensive action of the drugs, since the hearts were constantly exposed to the high afterload created by the aortic constriction.
All the mice were sacrificed at three weeks after the TAC was created.
FIG. 2 further compares hematoxylin and eosin (“H&E”)-stained histologic section of a sham-operated heart and of TAC-mouse hearts with or without sEHI treatment. […] We further assessed the chamber size and wall thickness in untreated TAC-mice compared to treated TAC-mice using echocardiography.

[2] = biological target: T1, soluble epoxide hydrolase (sEH) (Homo sapiens, UniProt P34913); assay: Inhibition of soluble epoxide hydrolase activity; type: biochemical
T1 sequence (P34913 with tags, fused parts or gaps A5G/DEL257-257/G258W): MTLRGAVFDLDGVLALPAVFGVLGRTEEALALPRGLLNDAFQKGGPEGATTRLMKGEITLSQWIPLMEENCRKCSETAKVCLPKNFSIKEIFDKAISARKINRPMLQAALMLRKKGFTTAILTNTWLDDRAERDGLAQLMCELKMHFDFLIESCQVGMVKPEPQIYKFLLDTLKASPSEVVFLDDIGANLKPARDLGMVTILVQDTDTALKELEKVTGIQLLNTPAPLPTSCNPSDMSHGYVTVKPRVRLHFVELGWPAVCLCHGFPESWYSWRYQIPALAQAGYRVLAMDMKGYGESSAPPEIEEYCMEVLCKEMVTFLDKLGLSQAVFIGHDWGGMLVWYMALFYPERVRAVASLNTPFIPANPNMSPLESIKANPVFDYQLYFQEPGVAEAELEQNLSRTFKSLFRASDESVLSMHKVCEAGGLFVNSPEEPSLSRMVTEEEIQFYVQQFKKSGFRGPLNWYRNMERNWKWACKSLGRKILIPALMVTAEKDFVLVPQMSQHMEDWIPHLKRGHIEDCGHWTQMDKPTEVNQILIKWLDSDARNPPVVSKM
Excerpt: Any of a number of standard assays for determining epoxide hydrolase activity can be used to determine inhibition of sEH. For example, suitable assays are described in Gill, et al., Anal Biochem 131, 273-282 (1983); and Borhan, et al., Analytical Biochemistry 231, 188-200 (1995)). Suitable in vitro assays are described in Zeldin et al., J. Biol. Chem. 268:6402-6407 (1993). Suitable in vivo assays are described in Zeldin et al., Arch Biochem Biophys 330:87-96 (1996). […]
The enzyme also can be detected based on the binding of specific ligands to the catalytic site which either immobilize the enzyme or label it with a probe such as dansyl, fluoracein, luciferase, green fluorescent protein or other reagent. […] The enzyme also can be detected based on the generation of fluorescent products following the hydrolysis of the epoxide. […]

Metabolic stability = type: in vitro ADME
[3] = tested on: neonatal mouse cardiac myocytes; assay: Angiotensin II induced hypertrophy of primary neonatal mouse cardiac myocytes in culture; type: cell-based, mouse (C57B1/6J); conditions: 48 hours of treatment with ANG II
Protocol: Single cardiac myocytes were isolated from 5 day old neonatal mice (C57B1/6J) as previously described (Nuss & Marban, J. Physiol. 479 (Pt 2):265-79 (1994); Chiamvimonvat et al., J. Physiol. 483 (Pt 2):307-18 (1995)). Mice were anesthetized with pentobarbital (40 mg/kg) intraperitoneally. Animals were sacrificed by decapitation and hearts excised under sterile conditions into a filter sterilized (0.2 μm) nominally Ca^2+-, bicarbonate-free Hanks HEPES-buffered solution, pH 7.4 at room temperature. Atrial and great vessel tissues were carefully removed. The ventricles were washed and minced in this Ca^2+-free buffered solution containing trypsin (Difco®, BD Diagnostic Systems, Sparks Md., 1.5 mg/ml), DNase (1 ml/100 ml of the enzyme solution). The tissues were then incubated with 2 ml of the enzyme solution and stirred continuously at 37° C. The supernatant was removed and the enzyme solution replaced at five-minute intervals. The supernatant obtained after the first 15 minutes was discarded. Thereafter, the supernatant was diluted 1:1 in bovine calf serum. The cells were centrifuged at 2000 r.p.m. for three minutes and resuspended in MEM culture medium (Invitrogen, Carlsbad, Calif.) containing 5% bovine calf serum (Invitrogen), penicillin G (sodium) and vitamin B12. The viability of the cells was assessed using the trypan blue dye exclusion test. […]

[4] = tested on: TAC-mice (thoracic aortic constriction, cardiac hypertrophy); assay: Thoracic aortic constriction (TAC) mouse model of pressure overload cardiac hypertrophy; type: in vivo, mouse (C57B1/6J); conditions: after 3 and 6 weeks of follow up

Structure (SMILES)	Hypertrophic response, H&E-stained histologic sections (FIG. 2) [1]	Cardiac hypertrophy after drug treatment [1]	Activity as inhibitor of sEH [2]	Metabolic stability (Metabolic stability)	Development of cardiac hypertrophy and failure, M-mode echocardiography (FIG. 3) ([1]; after three weeks of treatment)	Cardiac hypertrophy, whole hearts (FIG. 1) ([1]; drinking water three weeks, sacrificed at three weeks after TAC)	Loss of organization of the myofibrils (myofibril disarray), anti-alpha actinin immunofluorescence (FIG. 4) ([1]; left ventricle sections, three weeks)	Cell size of neonatal cardiac myocytes, ANG II plus compound versus ANG II alone [3]	Development of cardiac hypertrophy and failure, echocardiography [4]
CCCCOC(=O)CCCCCCCCCCCNC(=O)NC12CC3CC(CC(C3)C1)C2 [AUDA-BE, 12-(3-Adamantan-1-yl-ureido)dodecanoic acid butyl ester]	prevents the development of cardiac hypertrophy; also recorded: completely prevented	almost complete resolution of cardiac hypertrophy							
CCCCCCCCCCCCNC(=O)NC12CC3CC(CC(C3)C1)C2 [ADU, N-Adamantyl-N′-dodecyl urea]			particularly high activity on sEH	metabolically stable					
CCOCCOCCOCCCCCNC(=O)NC12CC3CC(CC(C3)C1)C2 [compound 950, Adamantan-1-yl-3-{5-[2-(2-ethoxyethoxy)ethoxy]pentyl}urea]	prevents the development of cardiac hypertrophy; also recorded: completely prevented	almost complete resolution of cardiac hypertrophy			completely prevented the development of cardiac hypertrophy and failure	no evidence of cardiac hypertrophy	effects were prevented	significant differences in the cell size	can prevent the development of cardiac hypertrophy and failure
